Consider one compound from patent US8158634B2, “Compounds and compositions as inhibitors of cannabinoid receptor 1 activity” (IRM LLC, priority 2004, dated 2012).

This assay concerns the target T1, human cannabinoid receptor 2 (CB2) (Homo sapiens, UniProt P34972).
T1 construct: expressed in transfected cells
In words: CB2 in vitro assays on CHO cell membranes ([3H]-CP55940 ligand binding / GTPγS binding), Ki by Cheng-Prusoff. The note with it: membranes of CHO cells stably expressing human CB2; EC50 converted by Cheng-Prusoff. The method, then: Homogenized membranes are prepared from CHO cell clones stably expressing a human cannabinoid receptor 1 (CB1) or human cannabinoid receptor 2 (CB2). Cells are grown and scrapped from 15 cm tissue culture plates, and then subsequently centrifuged down. Cells are washed once with cold PBS, and resuspended in <20 ml of Buffer A (20 mM HEPES, pH 7.4, 10 mM EDTA, EDTA-free complete protease inhibitor cocktail [1 tablet/25 ml]). The cell suspension is homogenized on ice, using a Polytron homogenizer at 25000 rpm at three intervals of 15 seconds each. The homogenate is first centrifuged at 2000 rpm on a tabletop low speed centrifuge for 10 minutes. The supernatant, after passing through a cell strainer, is then centrifuged at 50,000×g for 25 minutes at 4° C. The pellet is resuspended into buffer B (15% glycerol, 20 mM HEPES, pH 7.4, 0.1 mM EDTA, EDTA-free complete protease inhibitor cocktail [1 tablet/10 ml]). Protein concentration of the prep is determined using the BCA Protein Assay kit using BSA as standard. The membranes are aliquoted and kept frozen at −80° C.
[^3H]-CP55940 ligand binding assay: Solutions of test compounds ranging from 100 μM to 0.01 nM are prepared in DMSO. The desired amount of membrane prep is diluted with ice-cold assay buffer (50 mM Tris-HCl, 2.5 mM EDTA, 5 mM MgCl2, 0.05% BSA, pH 7.4) and vortexed well. […]

Bounds are passed on as bounds.

T1 sequence (P34972 whole entry): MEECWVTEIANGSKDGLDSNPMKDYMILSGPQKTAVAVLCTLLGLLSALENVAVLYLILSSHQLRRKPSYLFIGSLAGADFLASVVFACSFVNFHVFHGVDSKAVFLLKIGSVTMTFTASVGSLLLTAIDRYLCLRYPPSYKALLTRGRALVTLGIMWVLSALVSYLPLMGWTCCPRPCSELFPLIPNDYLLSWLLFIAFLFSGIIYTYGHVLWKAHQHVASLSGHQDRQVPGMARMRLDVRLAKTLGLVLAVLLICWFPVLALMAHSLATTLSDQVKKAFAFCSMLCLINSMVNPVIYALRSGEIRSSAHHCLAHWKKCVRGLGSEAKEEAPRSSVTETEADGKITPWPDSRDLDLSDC

On to `O=c1c2cnn(-c3ccccc3)c2nc(-c2ccccc2F)n1-c1ccc(Br)cc1` [Compound 19, 5-(4-Bromo-phenyl)-6-(2-fluoro-phenyl)-1-phenyl-1,5-dihydro-pyrazolo[3,4-d]pyrimidin-4-one], for which the Ki – broadly, the equilibrium dissociation constant of an inhibitor or competing ligand from its target – is more than 5 µM.
